Assay results reported in article PMC6738653, “The (p)ppGpp-binding GTPase Era promotes rRNA processing and cold adaptation in Staphylococcus aureus” (PLoS Genetics, 2019).

What was measured:
Era = target: T1, Era (Staphylococcus aureus, UniProt Q2FY06); assay: DRaCALA with […]-ppGpp; assay type: binding
T1 sequence (Q2FY06 1-299): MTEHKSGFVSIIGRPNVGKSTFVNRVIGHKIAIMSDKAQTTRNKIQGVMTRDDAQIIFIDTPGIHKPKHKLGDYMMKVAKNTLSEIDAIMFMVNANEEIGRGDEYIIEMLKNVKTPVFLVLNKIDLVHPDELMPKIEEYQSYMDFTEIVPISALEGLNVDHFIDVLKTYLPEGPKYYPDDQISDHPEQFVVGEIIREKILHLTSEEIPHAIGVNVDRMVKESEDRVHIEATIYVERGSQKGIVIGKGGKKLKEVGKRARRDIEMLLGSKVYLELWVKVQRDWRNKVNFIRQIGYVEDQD

[1] = target: Era fused to the SB (small bit of luciferase) (S. aureus); assay: split reporter (BiFC, NanoBiT); split luciferase (SB and LB fusions from pAP118) in S. aureus LAC*; 100 ng/ml Atet for 90 min, normalised to OD600 0.1, Nano-Glo Luciferase Assay; positive only if increased over both negative controls

fold increase in luciferase activity upon co-expression [1] [fold] | Compound | Kd (Era) [µM]
 | Nc1nc2c(ncn2[C@@H]2O[C@H](COP(=O)(O)OP(=O)(O)O)[C@@H](OP(=O)(O)OP(=O)(O)O)[C@H]2O)c(=O)[nH]1 [ppGpp] | 3.1 ± 0.4
4 | full-length CshA fused to LB (large bit of luciferase) (natural protein) | 
